Source: patent publication US20140179607A9 (IRONWOOD PHARMACEUTICALS, INC, priority 2009, published 2014)
Values belong to the compound of their own block, whether it stands above or below them. Positions of bridges follow the written chain, without caps; N, C: chain ends. Non-standard residues stand in square brackets, D forms with d. Residues, ends and D or L forms follow the SMILES beside them. pS = N[C@@H](COP(=O)(O)O)C(=O)O

How the values were obtained:
[1] = In vitro metabolism in mouse jejunum loop fluid; type: in vitro ADME; settings: for metabolism in mouse jejunum fluid (words) / remaining at 2 h, 100 μg/mL: 37° C.; for metabolism in mouse jejunum fluid (words): up to 120 minutes; for remaining at 2 h, 100 μg/mL: mouse jejunum loop fluid, pH 8, mouse jejunal loop fluid, after 120 minutes, read-out: percent remaining
Procedure: The purpose of this study was to determine the stability of phosphorylated peptides in mouse jejunal loop fluid. […] The isotopically labeled peptide 2 was synthesized with ^13C, ^15N-labeled alanine and leucine (i.e., with a sequence CCpS[^13C6, ^15N]LCCNP[^13C6, ^15N]ACTGC).
Each peptide was synthesized by American Peptide Company, Inc., and was stored desiccated at −20° C. A 1 mg/mL solution for each of the non-labeled peptides was prepared in 1 M tris (hydroxymethyl) aminomethane hydrochloride (Tris-HCl), pH 8 just prior to conducting the mouse intestinal loop fluid assay. A 500 ng/mL solution of ^13C, ^15N-labeled peptide 2 was prepared in 0.1% formic acid in water and was utilized to dilute the jejunum samples for post-assay LC-MS/MS analysis.
To collect the fluid, mice were fasted overnight with full access to water. They were then anesthetized with isofluorane for surgery and subjected to laparotomy in which the small intestine was exteriorized. Jejunum loops of 3 to 4 cm in length were made with sutures starting at 7 cm from the pyloric sphincter of the stomach. Once the loops were formed, they were injected with 200 μL of phosphate buffered saline (PBS) buffer (10 mM, pH 7.4). The abdominal wall and skin of the animals were then sutured, and the animals were allowed to recover for 30 minutes. Following recovery, the animals were sacrificed, the loops were then excised and the fluid inside was recovered and stored at −80° C. until use.
For each peptide, 25 μL of the 1 mg/mL peptide stock solution was added to 25 μL of 1 M Tris-HCl and 25 μL of 10× calf intestinal phosphatase (CIP) buffer containing 500 mM Tris-HCl, 1 M sodium chloride (NaCl), 0.1 mM magnesium chloride (MgCl2), pH 8. The reactions were initiated by adding 175 μL of the mouse jejunum loop fluid or 175 μL of the 1 M Tris-HCl pH8 buffer for the control reactions. The final concentration of each peptide was 100 μg/mL. The reactions were continuously mixed and maintained at 37° C. on a plate shaker. At 0, 2, 5, 10, 20, 30, 60, 90 and 120 minutes after adding the mouse intestinal loop fluid, a 25 μL aliquot was taken and added to 25 μL of 4° C. 12% trichloroacetic acid to stop the reaction. An additional 200 μL of 0.1% formic acid in water was added to these reactions for dilution purposes. These samples were then further diluted by taking 20 μL of each sample and adding it to 480 μL of 0.1% formic acid in water containing 500 ng/mL of the internal standard 13C, 15N -labeled peptide 2.
All samples were analyzed using an Applied Biosystems/MDS SCIEX API 4000 triple quadrupole mass spectrometer equipped with a high-performance liquid chromatography (HPLC) system. The mass spectrometer was operated in multiple reaction monitoring (MRM) mode, with resolution set to 1.2 Da.
The LC-MS/MS data were processed using Analyst version 1.4.2 software (Applied Biosystems/MDS SCIEX). The peak area ratio (ratio of analyte peak area to internal standard peak area) was used to calculate the percent remaining of each peptide.

[2] = target: T1, Calf intestinal alkaline phosphatase (CIP) (Bos taurus, UniProt P19111); assay: Alkaline phosphatase reaction (dephosphorylation of peptide substrates, LCMS); type: in vitro ADME
T1 construct: purchased New England BioLabs, Ipswich, Mass; M0290S
Procedure: (§1) For the alkaline phosphatase reactions, peptide stocks were prepared at 1 mg/mL in 0.1 M Tris-HCl pH 8, which were stored at −20° C. until assays were conducted. For the acid phosphatase reactions, peptide stocks were prepared at 1 mg/mL in 50 mM sodium phosphate pH 6, which was stored at −20° C. until assays were conducted.
Calf intestinal alkaline phosphatase (CIP) was obtained from New England BioLabs, Ipswich, Mass. Cat # M0290S. The CIP reaction solution was prepared by dilution with buffer (50 mM KCl, 10 mM Tris-HCl pH 8, 1 mM MgCl2, 50% glycerol) to 0.5 units/μL. The alkaline phosphatase reaction solutions were assembled in 20 μL quantities containing: • 2 μL 10× CIP buffer (1M NaCl, 500 mM Tris-HCl pH 8, 100 mM MgCl2) • 2 μL peptide stock (1 mg/mL) • 12 μL H2O • 4 μL alkaline phosphatase (0, 0.5 or 2 units)
The reaction solutions were mixed gently and incubated for 90 minutes at 37° C. These reaction solutions were stored at −20° C. until analysis. For analysis, the reaction solutions were diluted from 7.5 μL of CIP treated peptide to 50 μL with 0.1% formic acid in water to a final concentration of 10 μM.
Control reactions were assembled for enzyme activity containing 10 mM p-nitrophenylphosphate in place of peptide. After incubation, the reactions were diluted with 0.1 mL of 100 mM borate buffer pH 9 and read at the absorbance of 405 nm to monitor p-nitrophenol appearance.

[3] = target: T2, human prostate acid phosphatase (HuPrAP) (Homo sapiens, UniProt P15309); assay: Acid phosphatase reaction, human prostate acid phosphatase; type: in vitro ADME; settings: Human prostatic acid phosphatase pH 5, 90 minutes at 37° C.
T2 construct: purchased MP Biochemicals, Solon, Ohio 153872
T2 sequence (P15309 33-386): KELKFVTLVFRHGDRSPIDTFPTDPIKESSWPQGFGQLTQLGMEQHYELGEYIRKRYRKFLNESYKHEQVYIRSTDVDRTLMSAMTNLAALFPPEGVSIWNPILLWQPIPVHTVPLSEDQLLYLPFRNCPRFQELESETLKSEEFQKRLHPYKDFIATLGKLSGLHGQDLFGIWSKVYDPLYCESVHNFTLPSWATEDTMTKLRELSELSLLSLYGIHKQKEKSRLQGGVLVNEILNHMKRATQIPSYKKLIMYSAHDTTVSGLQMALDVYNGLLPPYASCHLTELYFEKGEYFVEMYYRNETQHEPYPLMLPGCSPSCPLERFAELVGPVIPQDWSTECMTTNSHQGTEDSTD
Procedure: as §1
(§2) Potato acid phosphatase (PoAP) was obtained from Sigma, St. Louis, Miss. Cat #P1146 and human prostate acid phosphatase (HuPrAP) was obtained from MP Biochemicals, Solon, Ohio. Cat # 153872. The acid phosphatases were dissolved to provide a solution containing 0.5 units AP/μL using 50 mM sodium acetate pH 5, 0.2 mM MgCl2. The acid phosphatase reactions were assembled in 20 μL quantities containing: • 2 μL 10× acid phosphatase buffer (500 mM sodium acetate pH 5, 2 mM MgCl2) • 2 μL peptide stock (1 mg/mL) • 12 μL H2O • 4 μL acid phosphatase (0.5 or 2 units)
(§3) The reaction solutions were mixed gently and incubated for 90 minutes at 37° C. The reaction solutions were stored at −20° C. for later analysis. For analysis, 7.5 μL acid phosphatase reactions were diluted to 50 μL with 0.1% formic acid in water to a final concentration of 10 μM. The control reactions for enzyme activity were assembled and diluted to 10 mM p-nitrophenylphosphate in place of peptide. After incubation, the reactions were diluted with 0.1 mL of 100 mM borate buffer pH 9 and read at the absorbance of 405 nm to monitor p-nitrophenol appearance.

[4] = oral administration at therapeutic dose levels; cited from earlier work
[5] = test system: Potato acid phosphatase (PoAP); assay: Acid phosphatase reaction, potato acid phosphatase; type: in vitro ADME; settings: Potato acid phosphatase pH 5, 90 minutes at 37° C.
Procedure: as §1, §2, §3

[6] = test system: Calf intestinal alkaline phosphatase (CIP); assay: Calf intestinal alkaline phosphatase (CIP) in CIP buffer (NaCl, Tris-HCl pH 8, MgCl2); settings: 37° C., up to 90 minutes
[7] = mouse jejunum loop fluid (loops injected with 200 μL PBS, fluid recovered after 30 minutes); settings: 37° C., up to 120 minutes
[8] = test system: human prostate acid phosphatase (HuPrAP); assay: human prostate acid phosphatase (HuPrAP) in sodium acetate pH 5, MgCl2; settings: 37° C., up to 90 minutes
[9] = test system: Potato acid phosphatase (PoAP); assay: Potato acid phosphatase (PoAP) in sodium acetate pH 5, MgCl2; settings: 37° C., up to 90 minutes
[10] = Alkaline phosphatase pH 8, 90 minutes at 37° C.

T1 sequence (P19111 20-506): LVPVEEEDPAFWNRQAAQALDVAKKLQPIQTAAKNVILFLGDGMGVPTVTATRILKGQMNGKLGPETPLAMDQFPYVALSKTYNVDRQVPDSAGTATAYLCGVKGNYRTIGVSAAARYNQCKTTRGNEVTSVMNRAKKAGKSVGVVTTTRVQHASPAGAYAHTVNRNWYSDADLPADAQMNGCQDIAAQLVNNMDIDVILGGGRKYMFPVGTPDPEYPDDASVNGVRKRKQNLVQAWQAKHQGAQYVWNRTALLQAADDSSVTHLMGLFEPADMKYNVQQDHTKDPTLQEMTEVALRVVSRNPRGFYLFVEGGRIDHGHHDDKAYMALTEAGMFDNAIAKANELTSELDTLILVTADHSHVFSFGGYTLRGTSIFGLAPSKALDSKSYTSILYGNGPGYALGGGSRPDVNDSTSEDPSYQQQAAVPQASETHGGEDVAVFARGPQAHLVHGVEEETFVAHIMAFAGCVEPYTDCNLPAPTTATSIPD

Compound: CC(C)C[C@@H]1NC(=O)[C@H](CO)NC(=O)[C@@H]2CSSC[C@@H]3NC(=O)[C@H](C)NC(=O)[C@@H]4CCCN4C(=O)[C@H](CC(N)=O)NC(=O)[C@H](CSSC[C@H](N)C(=O)N2)NC(=O)[C@H](CSSC[C@@H](C(=O)O)NC(=O)CNC(=O)[C@H]([C@@H](C)O)NC3=O)NC1=O [Dephospho-Peptide 2, CCSLCCNPACTGC] (H-CCSLCCNPACTGC-OH; disulfide 1-6, 2-10, 5-13 (inferred); N-terminus and C-terminus assumed)
metabolism in mouse jejunum fluid (words) [1]: degraded faster in mouse intestinal fluid than peptide 2 | remaining at 2 h, 100 μg/mL [1]: 5.6%

Compound: CC(C)C[C@@H]1NC(=O)[C@H](COP(=O)(O)O)NC(=O)[C@@H]2CSSC[C@@H]3NC(=O)[C@H](C)NC(=O)[C@@H]4CCCN4C(=O)[C@H](CC(N)=O)NC(=O)[C@H](CSSC[C@H](N)C(=O)N2)NC(=O)[C@H](CSSC[C@@H](C(=O)O)NC(=O)CNC(=O)[C@H]([C@@H](C)O)NC3=O)NC1=O [Peptide 2, CCpSLCCNPACTGC] (H-CC[pS]LCCNPACTGC-OH; disulfide 1-6, 2-10, 5-13 (inferred); N-terminus and C-terminus assumed)
formation of metabolite dephospho-peptide 2 ([1]; mouse jejunum loop fluid at 37° C.): Formation of dephospho-peptide 2 was observed | remaining at 2 h, 100 μg/mL [1]: 5.3% | Dephospho (%) [2, 10]: 100% | remaining at 1.5 h, 0.1 mg/mL ([2]; calf, calf intestinal alkaline phosphatase (CIP), Alkaline phosphatase pH 8, 90 minutes at 37° C.): 0% | Dephospho (%) [3]: 4.1% | remaining at 1.5 h, 0.1 mg/mL ([3]; human prostate acid phosphatase (HuPrAP)): 95.9%

Compound: CC(C)C[C@@H]1NC(=O)[C@H](CCC(=O)O)NC(=O)[C@@H]2CSSC[C@@H]3NC(=O)[C@H](C)NC(=O)[C@@H]4CCCN4C(=O)[C@H](CC(N)=O)NC(=O)[C@H](CSSC[C@H](N)C(=O)N2)NC(=O)[C@H](CSSC[C@@H](C(=O)N[C@@H](Cc2ccc(O)cc2)C(=O)O)NC(=O)CNC(=O)[C@H]([C@@H](C)O)NC3=O)NC1=O [Peptide 3, CCELCCNPACTGCY] (H-CCELCCNPACTGCY-OH; disulfide 1-6, 2-10, 5-13 (inferred); N-terminus and C-terminus assumed)
metabolism in mouse jejunum fluid (words) [1]: not detected after 90 minutes | metabolism in mouse jejunum fluid (words) ([1]; listed as peptide 3): degraded faster in mouse intestinal fluid than peptide 2 | Effect of CIP treatment on peptide (LC-MS) ([2]; with and without calf intestinal alkaline phosphatase, data not shown): not affected by CIP treatment

Compound: C[C@@H]1NC(=O)[C@@H]2CCCN2C(=O)[C@H](CC(N)=O)NC(=O)[C@@H]2CSSC[C@H](N)C(=O)N[C@H]3CSSC[C@H](NC1=O)C(=O)N[C@@H]([C@@H](C)O)C(=O)NCC(=O)N[C@H](C(=O)N[C@@H](Cc1ccc(O)cc1)C(=O)O)CSSC[C@H](NC(=O)[C@H](Cc1ccc(O)cc1)NC(=O)[C@H](CCC(=O)O)NC3=O)C(=O)N2 [linaclotide] (H-CCEYCCNPACTGCY-OH; disulfide 1-6, 2-10, 5-13)
levels seen systemically after oral administration [4]: no detectable levels

Compound: O=[N+]([O-])c1ccc(OP(=O)(O)O)cc1 [p-nitrophenylphosphate, reference compound]
Dephospho (%) [5]: 100% | Remaining (%) [5]: 0% | Dephospho (%) [2, 10]: 100% | Remaining (%) [2, 10]: 0% | Dephospho (%) [3]: 100% | Remaining (%) [3]: 0%

not cleaved [6]: not affected by CIP treatment
Compound: CCELCCNPACTGCY

fragment found [6]: Dephospho-Peptide 2 | fragment found [7]: dephospho-peptide 2 | fragment found [8]: Dephospho-Peptide 2
Compound: CCpSLCCNPACTGC

fragment found [6]: Dephospho-Peptide 1 | fragment found [9]: Dephospho-Peptide 1 | fragment found [8]: Dephospho-Peptide 1
Compound: CCpSLCCNPACTGCY
